The target in the experiment is T1, integrin α4β1 (Homo sapiens, UniProt P05556+P13612).
T1 construct: endogenous in cells; host or cells: Jurkat cells
T1 sequence (P13612 34-1032): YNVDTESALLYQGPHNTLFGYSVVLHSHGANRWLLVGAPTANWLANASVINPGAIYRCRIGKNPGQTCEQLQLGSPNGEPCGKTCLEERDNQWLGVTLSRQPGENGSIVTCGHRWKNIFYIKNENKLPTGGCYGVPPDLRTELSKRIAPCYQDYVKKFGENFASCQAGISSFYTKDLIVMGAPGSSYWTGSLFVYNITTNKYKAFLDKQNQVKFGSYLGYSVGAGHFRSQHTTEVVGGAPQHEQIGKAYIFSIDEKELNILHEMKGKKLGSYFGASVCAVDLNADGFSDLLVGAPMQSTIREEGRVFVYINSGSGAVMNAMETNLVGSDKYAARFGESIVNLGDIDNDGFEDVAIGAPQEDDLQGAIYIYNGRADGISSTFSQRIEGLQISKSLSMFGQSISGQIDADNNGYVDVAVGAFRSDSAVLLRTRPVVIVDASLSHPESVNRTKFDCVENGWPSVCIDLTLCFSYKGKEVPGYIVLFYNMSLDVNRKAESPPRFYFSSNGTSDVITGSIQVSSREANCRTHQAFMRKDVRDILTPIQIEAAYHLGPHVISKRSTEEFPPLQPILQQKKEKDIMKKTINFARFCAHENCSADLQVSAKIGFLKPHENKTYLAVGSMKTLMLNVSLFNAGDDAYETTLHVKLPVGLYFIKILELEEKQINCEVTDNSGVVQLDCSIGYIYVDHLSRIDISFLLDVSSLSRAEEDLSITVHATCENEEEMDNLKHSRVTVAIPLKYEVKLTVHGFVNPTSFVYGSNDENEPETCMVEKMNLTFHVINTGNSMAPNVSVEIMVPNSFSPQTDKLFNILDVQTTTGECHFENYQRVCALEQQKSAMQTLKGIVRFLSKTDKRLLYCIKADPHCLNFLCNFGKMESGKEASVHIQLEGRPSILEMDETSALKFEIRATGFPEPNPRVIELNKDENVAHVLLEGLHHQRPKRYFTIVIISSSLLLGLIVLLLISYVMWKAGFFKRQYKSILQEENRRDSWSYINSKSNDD
T1 sequence (P05556 21-798): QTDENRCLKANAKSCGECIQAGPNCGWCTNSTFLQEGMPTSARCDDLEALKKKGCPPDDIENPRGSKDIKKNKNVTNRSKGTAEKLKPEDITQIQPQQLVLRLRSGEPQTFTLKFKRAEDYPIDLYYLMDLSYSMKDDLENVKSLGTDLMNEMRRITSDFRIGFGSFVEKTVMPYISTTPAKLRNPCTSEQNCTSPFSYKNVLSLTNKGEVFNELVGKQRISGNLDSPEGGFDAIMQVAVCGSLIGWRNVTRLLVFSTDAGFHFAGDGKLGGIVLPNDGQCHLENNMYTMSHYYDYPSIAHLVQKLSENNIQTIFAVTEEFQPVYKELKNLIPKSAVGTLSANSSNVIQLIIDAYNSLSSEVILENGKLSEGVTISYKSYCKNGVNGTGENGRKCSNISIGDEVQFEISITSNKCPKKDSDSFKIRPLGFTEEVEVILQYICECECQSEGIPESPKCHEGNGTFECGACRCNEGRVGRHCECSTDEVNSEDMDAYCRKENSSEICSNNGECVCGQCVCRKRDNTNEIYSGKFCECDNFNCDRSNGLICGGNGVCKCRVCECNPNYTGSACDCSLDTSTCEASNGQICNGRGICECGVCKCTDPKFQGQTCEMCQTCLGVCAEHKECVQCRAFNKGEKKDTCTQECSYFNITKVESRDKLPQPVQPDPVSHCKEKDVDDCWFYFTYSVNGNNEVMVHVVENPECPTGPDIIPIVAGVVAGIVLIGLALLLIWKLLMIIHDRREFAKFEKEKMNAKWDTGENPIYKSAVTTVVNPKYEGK
In words: Inhibition of α4β1-dependent cell adhesion (Jurkat cells to peptide CS-1). The class given is cell-based. To be noted: adhesion of Jurkat cells to CS-1-coated plates; products preincubated with cells at 37° C. for 30 minutes; at least 6 product concentrations. On the procedure:
Inhibition of α4β1-Dependent Cell Adhesion
Inhibition of α4β1-dependent cell adhesion was assayed by evaluating the interaction between the peptide CS-1 (H-CLHGPEILDVPST-CONH2) and Jurkat cells (T lymphocyte cell line expressing activated integrin α4β1 but not integrin α4β7) after preincubation of said cells with the compounds of formula I to be tested. The peptide CS-1 was synthesized by conventional solid phase chemistry and purified by HPLC. Its identity was determined by elemental analysis and mass spectroscopy.
1.—Preparation of CS-1-Coated Plates
96-black well plates (Costar 3925) were used. 200 μL of 2% bovine serum albumin solution (BSA, Sigma α4503) was added per well and the plate was incubated for 2 hours at 37° C. The solution was discarded and the plate was washed twice with 200 μL of phosphate buffered saline solution (PBS, Gibco 14190-094) per well. Then, 200 μL of 10 μg/mL N-succinimidyl 3-(2-pyridyldithio)propionate solution (SPDP, Sigma P-3415) was added per well, and the plate was incubated at 37° C. for 30 minutes. The remaining solution was discarded and the plate was twice washed with 200 μL per well of PBS. Next, 200 μL of 25 μg/mL CS-1 peptide solution (equivalent to 5 μg/well) was added per well and the plate was incubated at 37° C. for 2 hours and then overnight at 4° C.
2.—Jurkat Cell Line: Culture and Fluorescent Labelling
Jurkat cells were kept in culture at a density comprised between 2×10^5 and 1.5×10^6 cells/mL in 1640 RPMI medium (Gibco 21875-034) enriched with 10% fetal calf serum (FCS, Gibco 10270-106).
50×10^6 cells were extracted, centrifuged (1200 rpm, 10 min, room temperature) and the medium was discarded. Cells were resuspended in 5 mL of RPMI, and 10 μL of a 1 mM solution of the fluorophore calceine.AM (Molecular Probes, C-3100) was added. The suspension was incubated for 30 min at 37° C. in the darkness, with occasional shaking. 40 mL of RPMI was added to stop the labelling and the suspension was centrifuged (1200 rpm, 10 min, room temperature). The medium was discarded, and the labelled cells were washed with 40 mL of RPMI in order to remove the unincorporated fluorescent probe. Finally, cells were resuspended in RPMI enriched with 10% FCS to obtain a 8×10^6 cells/mL suspension.
The plate previously prepared was twice washed with 200 μL per well of PBS and blocked with 200 μL of 1% BSA for at least 1 hour at room temperature.
The products to be tested were dissolved in dimethylsulfoxide at a concentration of 10 mM and dilutions thereof were prepared in RPMI medium enriched with 10% FCS. The products were preincubated with the Jurkat cells at 37° C. for 30 minutes, at a product concentration comprised between 1 nM and 10 μM, at a cell density of 4×10^6 cells/mL and at a maximal dimethylsulfoxide concentration of 0.1%.
100 μL of the resulting cell-product supsension was added per well (cellular density 4×10^5 cells/well). The product was omitted in the control wells and cells or CS-1 were omitted in the blanks. The plate was incubated for 60 min at room temperature in the-darkness, was twice washed with 200 μL per well of RPMI and then 100 μL of PBS was added. The plate was read with a fluorescence reader at an excitation wavelength of 485 nm and at an emission wavelength of 530 nm.
Maximal adhesion (100%) was determined as the average of the fluorescence intensities (FI) of the control wells, and the minimal adhesion as the average FI of the blanks. The adhesion inhibition percentage was determined using the following formula: [formula]
The results are expressed as the IC50 values (concentration producing 50% inhibition). IC50 values were calculated by testing at least 6 product concentrations and by adjusting the inhibition percentages to a dose-response curve of variable slope.
The term IC50 denotes the concentration needed to halve the response being measured. For `O=C(O)[C@H](CCC(=O)N1CCC(CNC(=O)N2CCOCC2)CC1)NC(=O)[C@@H]1CCCN1S(=O)(=O)c1cc(Cl)cc(Cl)c1` [Example 67, (2S)-2-[1-(3,5-Dichlorophenylsulfonyl)-L-prolylamino]-5-[4-(4-morpholinylcarbonylaminomethyl)piperidin-1-yl]-5-oxopentanoic Acid], the IC50 worked out at 33 nM. This lies in the double-digit nanomolar range.
The result for “(2S)-2-[1-(3,5-Dichlorophenylsulfonyl)-L-prolylamino]-5-oxo-5-[4-(1-pyrrolylmethyl)piperidin-1-yl]pentanoic Acid [Example 81]” reads 33 nM; that for `O=C(O)[C@H](CCC(=O)N1CCC(Cn2c(=O)[nH]c3cnccc32)CC1)NC(=O)[C@@H]1CCCN1S(=O)(=O)c1cc(Cl)cc(Cl)c1` [Example 86, (2S)-2-[1-(3,5-Dichlorophenylsulfonyl)-L-prolylamino]-5-oxo-5-[4-(2-oxo-2,3-dihydroimidazo[4,5-c]pyridin-1-ylmethyl)piperidin-1-yl]pentanoic Acid], 18 nM.
The result for `O=C(O)[C@H](CCC(=O)N1CCC(CN2Cc3ccccc3C2=O)CC1)NC(=O)[C@@H]1CCCN1S(=O)(=O)c1cc(Cl)cc(Cl)c1` [Example 54, (2S)-5-[4-[(1-Oxoisoindolin-2-yl)methyl]piperidin-1-yl]-2-[1-(3,5-dichlorophenylsulfonyl)-L-prolylamino]-5-oxopentanoic Acid] reads 22 nM; that for `Cc1nc2cnccc2n1CC1CCN(C(=O)NC[C@H](NC(=O)[C@@H]2CCCN2S(=O)(=O)c2cc(Cl)cc(Cl)c2)C(=O)O)CC1` [Example 89, (2S)-2-[1-(3,5-Dichlorophenylsulfonyl)-L-prolyl]amino-3-[[4-(2-methylimidazo[4,5-c]pyridin-1-ylmethyl)piperidin-1-ylcarbonyl]amino]propionic Acid], 7.7 nM; that for `CN1CCN(C(=O)NCC2CCN(C(=O)CC[C@H](NC(=O)[C@@H]3CCCN3S(=O)(=O)c3cc(Cl)cc(Cl)c3)C(=O)O)CC2)CC1` [Example 97, (2S)-2-[1-(3,5-Dichlorophenylsulfonyl)-L-prolylamino]-5-[4-[[(4-methylpiperazin-1-yl)carbonylamino]methyl]piperidin-1-yl]-5-oxopentanoic Acid], 122 nM.
The figure for `O=C(O)[C@H](CCC(=O)N1CCC(CCOC(=O)N2CCCC2)CC1)NC(=O)[C@@H]1CCCN1S(=O)(=O)c1cc(Cl)cc(Cl)c1` [Example 61, (2S)-2-[1-(3,5-Dichlorophenylsulfonyl)-L-prolylamino]-5-oxo-5-[4-[2-(pyrrolidin-1-ylcarbonyloxy)ethyl]piperidin-1-yl]pentanoic Acid] is 2.3 nM.
For the compound `CN(C)CC1CCN(C(=O)CC[C@H](NC(=O)[C@@H]2CCCN2S(=O)(=O)c2cc(Cl)cc(Cl)c2)C(=O)O)CC1` [Example 83, (2S)-2-[1-(3,5-Dichlorophenylsulfonyl)-L-prolylamino]-5-[4-(dimethylaminomethyl)piperidin-1-yl]-5-oxopentanoic Acid], 65 nM corresponded to half-maximal inhibition (IC50). This IC50 is about 28-fold higher than that of the compound before.
The figure for `CN1CCN(C(=O)OCCC2CCN(C(=O)CC[C@H](NC(=O)[C@@H]3CCCN3S(=O)(=O)c3cc(Cl)cc(Cl)c3)C(=O)O)CC2)CC1` [Example 93, (2S)-2-[1-(3,5-Dichlorophenylsulfonyl)-L-prolylamino]-5-[4-[2-[(4-methylpiperazin-1-yl)carbonyloxy]ethyl]piperidin-1-yl]5-oxopentanoic Acid] is 26.7 nM.
`CCc1nc2c(C)cc(C)nc2n1CC1CCN(C(=O)CC[C@H](NC(=O)[C@@H]2CCCN2S(=O)(=O)c2cc(Cl)cc(Cl)c2)C(=O)O)CC1` [Example 65] returned a concentration for half-maximal inhibition (IC50) of 45 nM.
The figure for `Cc1ccc(C)n1CC1CCN(C(=O)CC[C@H](NC(=O)[C@@H]2CCCN2S(=O)(=O)c2cc(Cl)cc(Cl)c2)C(=O)O)CC1` [Example 82, (2S)-2-[1-(3,5-Dichlorophenylsulfonyl)-L-prolylamino]-5-[4-(2,5-dimethylpyrrol-1-ylmethyl)piperidin-1-yl]-5-oxopentanoic Acid] is 89 nM; for `Cc1ccc(S(=O)(=O)N2CCC[C@H]2C(=O)N[C@@H](CCC(=O)N2CCC(CNc3nccc(C(F)(F)F)n3)CC2)C(=O)O)cc1` [Example 64, (2S)-5-Oxo-2-[1-tosyl-L-prolyl]amino-5-[4-[[4-(trifluoromethyl)pyrimidin-2-yl]aminomethyl]piperidin-1-yl]pentanoic Acid] it is 193 nM; for `O=C(O)[C@H](CCC(=O)N1CCC(CCOC(=O)N2CCN(c3ccccc3)CC2)CC1)NC(=O)[C@@H]1CCCN1S(=O)(=O)c1cc(Cl)cc(Cl)c1` [Example 117, (2S)-2-[1-(3,5-Dichlorophenylsulfonyl)-L-prolylamino]-5-oxo-5-[4-[2-(4-phenylpiperazin-1-ylcarbonyloxy)ethyl]piperidin-1-yl]pentanoic Acid] it is 135 nM.
`CN(C)CCN1CCN(C(=O)CC[C@H](NC(=O)[C@@H]2CCCN2S(=O)(=O)c2cc(Cl)cc(Cl)c2)C(=O)O)CC1` [Example 84, (2S)-2-[1-(3,5-Dichlorophenylsulfonyl)-L-prolylamino]-5-[4-[2-(dimethylamino)ethyl]piperazin-1-yl]-5-oxopentanoic Acid] returned a 50% inhibitory concentration (IC50) of 6 nM.
With `COCCNC(=O)OCCC1CCN(C(=O)CC[C@H](NC(=O)[C@@H]2CCCN2S(=O)(=O)c2cc(Cl)cc(Cl)c2)C(=O)O)CC1` [Example 66], the 50% inhibitory concentration (IC50) worked out at 3.5 nM.
The compound `Cc1ccc(S(=O)(=O)N2CCC[C@H]2C(=O)N[C@@H](CCC(=O)N2CCC(Cn3c(C)nc4cnccc43)CC2)C(=O)O)cc1` [Example 73, (2S)-5-[4-(2-Methylimidazo[4,5-c]pyridin-1-ylmethyl)piperidin-1-yl]-5-oxo-2-[1-tosyl-L-prolylamino]pentanoic Acid] had a 50% inhibitory concentration (IC50) of 57 nM.
The figure for `Cc1ccc(S(=O)(=O)N2CCC[C@H]2C(=O)N[C@@H](CNC(=O)N2CCC(CN3CCCCC3)CC2)C(=O)O)cc1` [Example 105, (2S)-3-[[4-(1-Piperidylmethyl)piperidin-1-ylcarbonyl]amino]-2-[N-tosyl-L-prolyl]aminopropionic Acid] is 120 nM; for `Cc1ccc(S(=O)(=O)N2CCC[C@H]2C(=O)N[C@@H](CCC(=O)N2CCN(Cc3ccccn3)CC2)C(=O)O)cc1` [Example 75, (2S)-5-Oxo-5-[4-(2-pyridylmethyl)piperazin-1-yl]-2-[[1-tosyl-L-prolyl]amino]pentanoic Acid] it is 101 nM; for `CCN(CC)CC1CCN(C(=O)CC[C@H](NC(=O)[C@@H]2CCCN2S(=O)(=O)c2cc(Cl)cc(Cl)c2)C(=O)O)CC1` [Example 88, (2S)-2-[1-(3,5-Dichlorophenylsulfonyl)-L-prolylamino]-5-[4-(diethylaminomethyl)piperidin-1-yl]-5-oxopentanoic Acid] it is 83.9 nM.
`CN(C)CC1CCN(C(=O)OC[C@H](NC(=O)[C@@H]2CCCN2S(=O)(=O)c2cc(Cl)cc(Cl)c2)C(=O)O)CC1` [Example 98, (2S)-2-[1-(3,5-Dichlorophenylsulfonyl)-L-prolyl]amino-3-[4-(dimethylaminomethyl)piperidin-1-ylcarbonyloxy]propionic Acid] registered an IC50 of 17.7 nM.
`CC(C)(C)NC(=O)NCC1CCN(C(=O)CC[C@H](NC(=O)[C@@H]2CCCN2S(=O)(=O)c2cc(Cl)cc(Cl)c2)C(=O)O)CC1` [Example 56, (2S)-5-[4-[(N′-tert-Butylureido)methyl]piperidin-1-yl]-2-[1-(3,5-dichlorophenylsulfonyl)-L-prolylamino]-5-oxopentanoic Acid] gave a concentration for half-maximal inhibition (IC50) of 23 nM. The IC50 values of the last two compounds are within 1.5-fold of each other.

(Values after patent publication US20050143391A1, “Heterocyclic amides with alpha-4 integrin antagonist activity” (J. Uriach Y Compañia S.A., priority 2002, published 2005).)
